Test results taken from the NIST ThermoML archive (doi:10.1021/je800316b).

Settings: Liquid

CCCCCCCCCCn1cc[n+](C)c1.O=S(=O)([N-]S(=O)(=O)C(F)(F)F)C(F)(F)F
mass density [kg/m3]
Settings | 100 kPa | 2500 kPa | 5000 kPa | 7500 kPa | 10000 kPa | 15000 kPa | 20000 kPa | 25000 kPa | 30000 kPa | 35000 kPa
293.15 K | 1282.4 | 1285.6 | 1287.4 | 1289.3 | 1291.1 | 1294.6 | 1298.1 | 1301.4 | 1304.7 | 1308
298.15 K | 1278 | 1280.8 | 1282.7 | 1284.6 | 1286.4 | 1290 | 1293.5 | 1297 | 1300.3 | 1303.6
303.15 K | 1273.6 | 1276.4 | 1278.3 | 1280.3 | 1282.1 | 1285.8 | 1289.4 | 1292.9 | 1296.3 | 1299.6
313.15 K | 1265.3 | 1267.3 | 1269.3 | 1271.3 | 1273.2 | 1277 | 1280.7 | 1284.2 | 1287.7 | 1291.1
333.15 K | 1245.5 | 1247.7 | 1249.8 | 1251.9 | 1254 | 1258 | 1261.9 | 1265.7 | 1269.4 | 1273
353.15 K | 1228.6 | 1230.9 | 1233.2 | 1235.5 | 1237.6 | 1242 | 1246.2 | 1250.2 | 1254.1 | 1257.9
373.15 K | 1209.6 | 1212.4 | 1214.8 | 1217.3 | 1219.6 | 1224.2 | 1228.6 | 1232.9 | 1237 | 1241.1
393.15 K | 1191.8 | 1195.8 | 1198.3 | 1200.9 | 1203.4 | 1208.2 | 1212.8 | 1217.3 | 1221.7 | 1225.9

CCn1cc[n+](CC)c1.O=S(=O)([N-]S(=O)(=O)C(F)(F)F)C(F)(F)F [1,3-diethylimidazolium bis[(trifluoromethyl)sulfonyl]imide]
mass density [kg/m3]
Settings | 100 kPa | 2500 kPa | 5000 kPa | 7500 kPa | 10000 kPa | 15000 kPa | 20000 kPa | 25000 kPa | 30000 kPa | 35000 kPa
293.15 K | 1469.2 | 1471.1 | 1473.1 | 1475 | 1476.9 | 1480.8 | 1484.2 | 1487.9 | 1491.5 | 1495.2
298.15 K | 1463.2 | 1465.5 | 1467.6 | 1469.5 | 1471.4 | 1475.3 | 1479 | 1482.5 | 1486.1 | 1489.5
303.15 K | 1457.7 | 1460.1 | 1462.1 | 1463.9 | 1466.1 | 1469.8 | 1473.6 | 1477.1 | 1480.9 | 1484.3
313.15 K | 1447.3 | 1449.6 | 1451.6 | 1453.7 | 1455.8 | 1459.7 | 1463.5 | 1467.2 | 1470.9 | 1474.6
333.15 K | 1425.7 | 1428.2 | 1430.4 | 1432.6 | 1434.8 | 1439.1 | 1443.2 | 1447.2 | 1450.9 | 1454.8
353.15 K | 1404.5 | 1407.5 | 1409.9 | 1412.2 | 1414.5 | 1419 | 1423.4 | 1427.5 | 1431.6 | 1435.6
373.15 K | 1384.1 | 1386.9 | 1389.5 | 1391.9 | 1394.4 | 1399.1 | 1403.7 | 1408.1 | 1412.4 | 1416.7
393.15 K | 1364.2 | 1367.2 | 1369.9 | 1372.5 | 1375.1 | 1380.2 | 1384.9 | 1389.6 | 1394.3 | 1398.6

CCOS(=O)(=O)[O-].CCn1cc[n+](C)c1 [1-ethyl-3-methylimidazolium ethyl sulfate]
mass density [kg/m3]
Settings | 100 kPa | 2500 kPa | 5000 kPa | 7500 kPa | 10000 kPa | 15000 kPa | 20000 kPa | 25000 kPa | 30000 kPa | 35000 kPa
293.15 K | 1246.9 | 1249 | 1250.2 | 1251.3 | 1252.3 | 1254.3 | 1256.5 | 1258.5 | 1260.5 | 1262.4
298.15 K | 1244.3 | 1245.2 | 1246.3 | 1247.4 | 1248.4 | 1250.6 | 1252.7 | 1254.8 | 1256.6 | 1258.7
303.15 K | 1240.8 | 1241.6 | 1242.7 | 1243.8 | 1244.9 | 1247 | 1249.1 | 1251.1 | 1253.2 | 1255.2
313.15 K | 1233.1 | 1234 | 1235.1 | 1236.2 | 1237.3 | 1239.5 | 1241.6 | 1243.7 | 1245.8 | 1247.9
333.15 K | 1218.3 | 1219.2 | 1220.4 | 1221.6 | 1222.7 | 1225 | 1227.2 | 1229.3 | 1231.5 | 1233.6
353.15 K | 1204.2 | 1205.3 | 1206.6 | 1207.8 | 1209 | 1211.4 | 1213.8 | 1216.1 | 1218.4 | 1220.6
373.15 K | 1190.1 | 1191.3 | 1192.6 | 1193.9 | 1195.2 | 1197.7 | 1200.2 | 1202.6 | 1204.9 | 1207.3
393.15 K | 1176.6 | 1178 | 1179.3 | 1180.7 | 1182 | 1184.6 | 1187.2 | 1189.7 | 1192.2 | 1194.6

CCn1cc[n+](C)c1.COS(=O)(=O)[O-] [1-ethyl-3-methylimidazolium methylsulfate]
mass density [kg/m3]
Settings | 100 kPa | 2500 kPa | 5000 kPa | 7500 kPa | 10000 kPa | 15000 kPa | 20000 kPa | 25000 kPa | 30000 kPa | 35000 kPa
293.15 K | 1292.1 | 1293 | 1294 | 1295 | 1296 | 1298 | 1299.9 | 1301.8 | 1303.7 | 1305.6
298.15 K | 1288 | 1289.1 | 1290.1 | 1291.1 | 1292.1 | 1294.1 | 1296.1 | 1298 | 1300 | 1301.9
303.15 K | 1283.3 | 1284.3 | 1285.4 | 1286.4 | 1287.4 | 1289.5 | 1291.4 | 1293.4 | 1295.3 | 1297.3
313.15 K | 1276.6 | 1277.8 | 1278.9 | 1279.9 | 1281 | 1283 | 1285.1 | 1287.1 | 1289.1 | 1291.1
333.15 K | 1260.9 | 1262.3 | 1263.4 | 1264.5 | 1265.6 | 1267.8 | 1269.9 | 1272 | 1274 | 1276.1
353.15 K | 1245.5 | 1247.5 | 1248.7 | 1249.9 | 1251.1 | 1253.4 | 1255.6 | 1257.8 | 1260 | 1262.2
373.15 K | 1231.4 | 1232.8 | 1234 | 1235.2 | 1236.4 | 1238.8 | 1241.2 | 1243.5 | 1245.7 | 1248
393.15 K | 1218.1 | 1219.2 | 1220.5 | 1221.8 | 1223.1 | 1225.5 | 1227.9 | 1230.3 | 1232.6 | 1234.9
